≈ marks a conversion by molar mass, not a printed value. Where “and” joins values, the source holds several entries; their conditions need not be identical. Equal entries are not always repeated. Ends that are not written are not given here.
Assays:
[1] = system: Pseudomonas aeruginosae NCTC 6749; test: microbe, parasite or virus in culture; type: cell-based; settings: broth microdilution (CLSI), Mueller–Hinton broth, 37 °C, peptide 0.125 to […], no visible growth, triplicate
Description: (§1) Antimicrobial activity of peptides was examined against three reference strains: Staphylococcus aureus NCTC 4163, Escherichia coli NCTC 8196 and Pseudomonas aeruginosae NCTC 6749 dedicated for the determination of antibacterial activity. The bacterial strains were stored in glycerol stock (Sigma-Aldrich, St. Louis, MO, USA) at −80 °C. Before testing, the strains were cultured aerobically in Tryptic Soy Agar (BD DIFCO, Franklin Lakes, NJ, USA) at 37 °C for 20 h. The susceptibility of microorganisms to the peptides was determined by the broth microdilution assay according to the procedures outlined by CLSI [49]. […] In order to prepare the bacterial suspension, an overnight culture of bacteria in Tryptic Soy Broth (BD DIFCO, Franklin Lakes, NJ, USA) was diluted in sterile saline to a final concentration of approximately 10^7 CFU/mL of bacteria. Aliquots (5 µL) of bacterial suspension were added to each peptide solution. The sterility control (containing the tested peptide in broth) and the growth control (containing the reference strain in broth without the tested peptide) were also set up. The plates were incubated at 37 °C under aerobic conditions. The results are expressed as the minimal inhibitory concentration (MIC) of the compounds in question. The MIC was defined as the lowest concentration at which no visible growth of bacteria (no turbidity) was observed. The assay was performed in triplicate.

HT29 cells = test: MTT cytotoxicity assay; type: cell-based, human; settings: for Effect on cell viability up to 10 µM: 24 h, peptide up to 10 µM; for LD50 (peptide concentration sufficient to kill 50% of the peptide-treated cells): 24 h incubation, 0.05–50 µM, from regression curves of cell viability, triplicate
Description: (§2) The cytotoxicity of the selected MP analogs, MP-RIP and RIP-MP, was determined against two human cell lines. The viability of HT29 and HCT116 cells incubated with various concentrations of MP-RIP and RIP-MP was assessed by the MTT assay (Figure 4). […] Moreover, based on the regression curves of cell viability, lethal doses of MP analogs sufficient to kill 50% of the peptide-treated cells (LD50) were calculated. […] The viability of the HT29 cells indicates relatively low cytotoxicity of both analogs at a concentration corresponding to the MIC value against S. aureus. In the case of HCT116 cells, the above relationships were less evident.
(§3) Human cell lines HT29 (ATCC cat. # HTB-38) and HCT116 (ATCC cat. # CCL-247) were cultured in McCoy (HT29) or Dulbecco’s Modified Eagle’s (DMEM) medium (HCT116), supplemented with 10% fetal bovine serum (FBS), penicillin (100 U/mL) and streptomycin (100 µg/mL). Cultures were conducted at 37 °C in humidified atmosphere of 5% CO2. Cells were cultured for 24 h before initiation of the experiments. The cell viability was determined by the 3-(4, 5-dimethylthazol-2-yl)-2, 5-diphenyl tetrazolium bromide (MTT) assay. Briefly, HT29 or HCT116 cells were seeded in 96-well plates to a density of 10^5 cells/well in 0.2 mL of above-specified culture media. After 24 h, the following concentrations of peptides were added to wells: 0.05, 0.1, 0.5, 1, 5, 10, 25, 50 µM. As a negative control, cells were treated with 0.9% NaCl. After 24 h of incubation (5% CO2, 37 °C), 15 µL MTT solution was added into each well to reach the final concentration of […]. After further incubation for 2 h (5% CO2, 37 °C) the cells were centrifuged for 3 min at 4 °C and the medium was removed. Formazan crystals present in mitochondria of metabolically active cells were dissolved with 100 μL of dimethylsulfoxide (DMSO), and the dye concentration was determined at 570 nm wavelength. Cell viability was expressed as a percentage (mean value ± SEM) of those cells treated with 0.9% NaCl as negative control. Lethal doses, which correspond to peptide concentrations sufficient to kill 50% of the peptide-treated cells (LD50), were determined with GraphPad Prism 7.0 software (GraphPad Software Inc., La Jolla, CA, USA). The assay was performed in triplicate.

HCT116 cells = test: MTT cytotoxicity assay; type: cell-based, human; settings: for Effect on cell viability up to 10 µM: 24 h, peptide up to 10 µM; for LD50 (peptide concentration sufficient to kill 50% of the peptide-treated cells): 24 h incubation, 0.05–50 µM, from regression curves of cell viability, triplicate
Description: as §2, §3

[2] = system: Escherichia coli NCTC 8196; test: microbe, parasite or virus in culture; type: cell-based; settings: broth microdilution (CLSI), Mueller–Hinton broth, 37 °C, peptide 0.125 to […], no visible growth, triplicate
Description: as §1

[3] = system: Staphylococcus aureus NCTC 4163; test: microbe, parasite or virus in culture; type: cell-based; settings: broth microdilution (CLSI), Mueller–Hinton broth, 37 °C, peptide 0.125 to […], no visible growth, triplicate
Description: as §1

[4] = cited from earlier work
From the text: However, comparing their cytotoxic properties with other MP analogs known from the previous literature reports appears to be difficult due to the different cell lines used in cytotoxicity assays.

[5] = Circular dichroism spectroscopy, relative α-helix fraction; type: physicochemical; settings: CD, peptide 0.15 mg/mL, 25 °C, three scans averaged; for Relative α-helix fraction (fH), 0.1 M Tris + 50 mM SDS: 0.1 M Tris buffer pH 7.01 + 50 mM SDS, from mean residue ellipticity at 222 nm; for Relative α-helix fraction (fH), water / Relative α-helix fraction (fH), 50% TFE: from mean residue ellipticity at 222 nm (Rohl and Baldwin)
Description: Circular dichroism spectroscopy was applied to evaluate the conformational changes of peptides induced by membrane-mimetic environments. The secondary structures of MP and some of its MP analogs (Table 4) were determined in water, 50% 2,2,2-trifluoroethanol (TFE) and 0.1 M Tris buffer with the addition of 50 mM SDS. The relative α-helix fraction (fH) values presented in Table 4, calculated from the values of mean residue ellipticity at 222 nm, reflect the ability of peptides to adopt helical structure in the tested environments.
Circular dichroism (CD) spectra of peptides were recorded on a Jasco J-815 spectropolarimeter (Jasco Int. Co., Ltd., Tokyo, Japan). The CD spectra were acquired for peptides in a concentration of 0.15 mg/mL in water, 50% 2,2,2-trifluoroethanol (TFE) or 0.1 M tris(hydroxymethyl)aminomethane (Tris) buffer (pH 7.01) with the addition of 50 mM SDS (sodium dodecylsulphate) in 0.1 cm path length cuvettes. Measurements were taken at 25 °C in a spectral range of 193–260 nm with a bandwidth of 1 nm and response of 1 s. The spectra were averaged after three scans. Ellipticity was measured in mdeg units and converted to mean residue ellipticity (Θ). The relative helix content (fH) was calculated from the mean residue ellipticity values at 222 nm using the method proposed by Rohl and Baldwin [50] and described previously. Helical wheel projections (Figure 3) were made with HeliQuest https://heliquest.ipmc.cnrs.fr/ (accessed on 1 June 2022).

INLKALAALAKKILYSPWTNF-NH2 [MP-RIP]
MIC P. aeruginosae [1]: >256 µg/mL | Effect on cell viability up to 10 µM (HT29 cells): did not substantially affect the viability | LD50 (peptide concentration sufficient to kill 50% of the peptide-treated cells) (HT29 cells): 38.0 µM | Effect on cell viability up to 10 µM (HCT116 cells): did not substantially affect the viability | LD50 (peptide concentration sufficient to kill 50% of the peptide-treated cells) (HCT116 cells): 13.2 µM

LIKKALAALAKLNI-NH2 [retroMP, reference compound]
MIC E. coli [2]: 256 µg/mL | MIC P. aeruginosae [1]: 256 µg/mL | MIC S. aureus [3]: >256 µg/mL | Fold lower cytotoxicity than MP [4]: 3.5 fold | Relative α-helix fraction (fH), 0.1 M Tris + 50 mM SDS [5]: 0.16 | Relative α-helix fraction (fH), water [5]: 0.19

INLKALAALAKKILLIKKALAALAKLNI-NH2 [MP-retroMP]
MIC E. coli [2]: >256 µg/mL | MIC P. aeruginosae [1]: >256 µg/mL | MIC S. aureus [3]: >256 µg/mL | Relative α-helix fraction (fH), 0.1 M Tris + 50 mM SDS [5]: 0.17 | Relative α-helix fraction (fH), 50% TFE [5]: 0.23–0.24 and 0.24 | Relative α-helix fraction (fH), water [5]: 0.04

CC[C@H](C)[C@H](NC(=O)[C@H](CCCCN)NC(=O)CNC(=O)[C@H](CC(C)C)NC(=O)[C@H](CC(C)C)NC(=O)[C@H](Cc1ccc(O)cc1)NC(=O)CNC(=O)[C@H](C)N)C(=O)N[C@@H](CC(N)=O)C(=O)N[C@@H](CC(C)C)C(=O)N[C@@H](CCCCN)C(=O)N[C@@H](C)C(=O)N[C@@H](CC(C)C)C(=O)N[C@@H](C)C(=O)N[C@@H](C)C(=O)N[C@@H](CC(C)C)C(=O)N[C@@H](C)C(=O)N[C@@H](CCCCN)C(=O)N[C@@H](CCCCN)C(=O)N[C@H](C(=O)N[C@@H](CC(C)C)C(=O)N[C@@H](Cc1ccc(O)cc1)C(=O)N[C@@H](CCCCN)C(=O)N1CCC[C@H]1C(=O)N[C@H](C(=O)N[C@H](C(=O)N[C@@H](CC(N)=O)C(=O)N[C@@H](Cc1ccccc1)C(N)=O)[C@@H](C)O)[C@@H](C)CC)[C@@H](C)CC [TP10-[Lys^2, Ile^4] RIP]
MIC E. coli [2]: >256 µg/mL | MIC P. aeruginosae [1]: >256 µg/mL | MIC S. aureus [3]: 128 µg/mL (≈ 42 µM) | Relative α-helix fraction (fH), 0.1 M Tris + 50 mM SDS [5]: 0.31 | Relative α-helix fraction (fH), 50% TFE [5]: 0.29 | Relative α-helix fraction (fH), water [5]: 0.08

YSPWTNFINLKALAALAKKIL-NH2 [RIP-MP]
MIC P. aeruginosae [1]: >256 µg/mL | Effect on cell viability up to 10 µM (HT29 cells): did not substantially affect the viability | LD50 (peptide concentration sufficient to kill 50% of the peptide-treated cells) (HT29 cells): 30.2 µM | Effect on cell viability up to 10 µM (HCT116 cells): did not substantially affect the viability | LD50 (peptide concentration sufficient to kill 50% of the peptide-treated cells) (HCT116 cells): 17.0 µM

Reference: PMC9332802, “Structure–Activity Relationship of New Chimeric Analogs of Mastoparan from the Wasp Venom Paravespula lewisii” (International Journal of Molecular Sciences, 2022)
